Experimental findings from patent publication EP4410314A1, “COMBINATION THERAPY COMPRISING ANTI-CD22 ANTIBODY-DRUG CONJUGATE AND IRAK1 INHIBITOR” (ADC Therapeutics SA, priority 2023, dated 2024) are described below.

One test concerns MEC-2. Kind of test: In vitro cytotoxicity, MEC-2. It is filed as cell-based, human. The settings on record: MEC-2 (CLL), CD22-positive; mean ± SEM.
Test [1] deals with KARPAS-299. The test can be described thus: In vitro cytotoxicity, KARPAS-299. It is filed as cell-based, human. Conditions: KARPAS-299 (ALCL), CD22-negative; mean ± SEM.
For the next test, the system named is Daudi. Kind of test: In vitro cytotoxicity, Daudi. The class given is cell-based, human. The settings on record: Daudi (BL), CD22-positive; mean ± SEM.
Another test deals with Ramos. The test can be described thus: In vitro cytotoxicity, Ramos. The class given is cell-based, human. The settings on record: Ramos (BL), CD22-positive; mean ± SEM.
The subject of a further test is REH. The test can be described thus: In vitro cytotoxicity, REH. It is filed as cell-based, human. The settings on record: REH (B-ALL), CD22-positive; mean ± SEM.
In another test the test system is GRANTA-519. The test can be described thus: In vitro cytotoxicity, GRANTA-519. Conditions: GRANTA-519 (MCL), CD22-positive; mean ± SEM. The class given is cell-based, human.
The test system of another test is NALM-6. The test can be described thus: In vitro cytotoxicity, NALM-6. It is filed as cell-based, human. The settings on record: NALM-6 (B-ALL), CD22-positive; mean ± SEM.
The next test relates to Ramos cells. Kind of test: DNA interstrand crosslinks, single cell gel electrophoresis (Comet) assay, Ramos. It is filed as cell-based, human. On the procedure: (§1) Quantification of in vitro DNA interstrand crosslinks (ICLs) was performed using the single cell gel electrophoresis (Comet) assay.
(§2) DNA ICLs were measured using a modification of the single-cell gel electrophoresis (Comet) assay, and crosslinking was expressed as the percentage decrease in Olive tail moment (OTM) versus control irradiated cells. […] Immediately after the drug incubation period, a low level of ICLs (3%) was observed, which increased over time to near peak levels (≈50%) at 12 hours and persisted up to 48 hours. […] In this cell line, SG3199 produced a high level of ICL (≈50%), similar to that observed in the Ramos cell line.

The subject of the next test is DO HH-2. Kind of test: In vitro cytotoxicity, DO HH-2. It is filed as cell-based, human. The settings on record: DO HH-2 (FL), CD22-positive; mean ± SEM.
The next test relates to KM-H2. The test can be described thus: In vitro cytotoxicity, KM-H2. The class given is cell-based, human. Conditions: KM-H2 (HL), CD22-negative; mean ± SEM.
For another test, the system named is NAMALWA. Kind of test: In vitro cytotoxicity, NAMALWA. The class given is cell-based, human. The settings on record: NAMALWA (BL), CD22-positive; mean ± SEM.
The test system of test [2] is KARPAS-299. The test can be described thus: DNA interstrand crosslinks, single cell gel electrophoresis (Comet) assay, KARPAS-299. It is filed as cell-based, human. Conditions: KARPAS-299 (CD22-negative), over 48 hours following a 2-hour treatment. On the procedure:
as §1, §2

A further test deals with SEM cells. Kind of test: In vitro cytotoxicity, SEM. It is filed as cell-based, human. Conditions: SEM (B-ALL), CD22-positive; mean ± SEM.
Another test deals with SUP-T1. Kind of test: In vitro cytotoxicity, SUP-T1. It is filed as cell-based, human. Conditions: SUP-T1 (T-LL), CD22-negative; mean ± SEM.
The next test concerns CD22. The test can be described thus: CD22 cell surface expression after chidamide treatment, flow cytometry. Conditions: chidamide 0.25 or 0.5 µM for 7 days; Ramos, TMD8, and SU-DHL-4 cell lines. It is filed as cell-based. On the procedure:
Chidamide (Selleckchem) was dissolved in dimethyl sulfoxide (DMSO) according to the manufacturer's instructions. Cells were treated with chidamide (0.25 or 0.5 µM) for 7 days at 37°C in a 5% carbon dioxide-gassed, humidified incubator. On day 3, cells were centrifuged, and fresh medium containing the corresponding concentrations of chidamide was added. The control group was treated with equal volumes of DMSO.
CD22 cell surface expression after chidamide treatment was measured by flow cytometry. hLL2-C220 and B12 antibodies, followed by Alexa Fluor 488 anti-human secondary antibodies (Life Technologies, Thermo Fisher Scientific) or allophycocyanin anti-human secondary antibodies (BioLegend), were used for CD22 detection. Cells were analyzed using a CytoFLEX Flow Cytometer (Beckman Coulter), and data were analyzed with FlowJo software version 10.8.1 (BD Biosciences).
(In general: Flow cytometry measures light scatter and fluorescence of single cells or particles in a stream.)

Consider `COc1cc2c(cc1OCCCCCOc1cc3c(cc1OC)C(=O)N1C=C(C)C[C@H]1C=N3)N=C[C@@H]1CC(C)=CN1C2=O` [SG3199], for which the 50% inhibitory concentration (IC50) with MEC-2 came out at 0.033 ± 0.009 nM; in the test with KARPAS-299 [1], 0.025 ± 0.001 nM; with Daudi it was 0.008 ± 0.001 nM; with Ramos, 0.016 ± 0.001 nM; in the test with REH, 0.001 nM; in the test with GRANTA-519 it was 0.002 nM. Further, the IC50 in the test on NALM-6 was 0.002 nM; with DO HH-2, 0.007 ± 0.001 nM; in the test on KM-H2, 0.036 ± 0.005 nM; in the test with NAMALWA, 0.014 ± 0.001 nM; with SEM cells, 0.005 ± 0.002 nM; with SUP-T1, 0.026 ± 0.005 nM. The “DNA ICLs, percentage decrease in Olive tail moment (OTM) versus control irradiated cells” value is reported as 46% with Ramos cells (2-hour exposure, immediately after the drug incubation period); 56% with Ramos cells (after 2 hours following drug incubation); “≈ 50%” with KARPAS-299 [2]. For the same compound, the “persistence of DNA ICLs” value in the test on Ramos cells (following 2-hour exposure) is listed as “up to 48 hours”.

As to `Nc1cc(F)ccc1NC(=O)c1ccc(CNC(=O)/C=C/c2cccnc2)cc1` [chidamide], in the test with CD22, the “increase of CD22 expression compared with DMSO-treated cells (MFI fold change)” value is on record as “up to 2.4 times”.

Broadly, the IC50 is the concentration that inhibits the measured activity by half. Low values mean higher potency, high ones lower potency.
